Experimental findings from ChEMBL document CHEMBL4665702, “Cacalol Acetate, a Sesquiterpene from Psacalium decompositum, Exerts an Anti-inflammatory Effect through LPS/NF-KB Signaling in Raw 264.7 Macrophages” (2020) are described below.

In assay [1] the target is Transcription factor p65 (Mus musculus) (UniProt Q04207). Kind of assay: Inhibition of p65 phosphorylation at Ser536 residues in LPS-induced mouse RAW 264.7 cells at 100 uM preincubated for 1 hr followed by LPS administration measured after 25 mins by Western blot analysis relative to control. The note with it: RAW264.7, time 85.0 min. In general terms: Immunoblotting shows a protein as a band on a membrane.
Target sequence in this assay (Q04207 whole entry): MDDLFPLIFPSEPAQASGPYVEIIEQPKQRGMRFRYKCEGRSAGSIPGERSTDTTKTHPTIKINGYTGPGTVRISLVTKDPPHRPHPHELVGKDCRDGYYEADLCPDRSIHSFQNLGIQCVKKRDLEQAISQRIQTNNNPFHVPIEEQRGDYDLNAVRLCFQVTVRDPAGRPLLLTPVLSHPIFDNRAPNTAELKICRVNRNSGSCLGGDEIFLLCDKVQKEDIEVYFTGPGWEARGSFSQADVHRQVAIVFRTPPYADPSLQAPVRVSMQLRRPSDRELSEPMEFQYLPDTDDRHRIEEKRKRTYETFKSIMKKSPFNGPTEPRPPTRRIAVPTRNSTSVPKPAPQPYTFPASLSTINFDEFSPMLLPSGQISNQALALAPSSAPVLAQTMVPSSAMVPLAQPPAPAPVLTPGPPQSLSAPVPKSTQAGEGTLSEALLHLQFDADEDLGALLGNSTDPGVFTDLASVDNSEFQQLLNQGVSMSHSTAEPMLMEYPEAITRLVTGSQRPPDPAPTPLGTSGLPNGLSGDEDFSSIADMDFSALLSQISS

In assay [2] the test system is Mus musculus. Briefly: Anti-inflammatory activity in TPA-induced CD-1 mouse ear edema model assessed as ear weight at 1 mg. The class given is functional.
Assay [3] concerns Mus musculus. Kind of assay: Anti-inflammatory activity in TPA-induced CD-1 mouse ear edema model assessed as inhibition of ear edema at 1 mg relative to control. It counts as functional.
Assay [4] concerns RAW264.7. Briefly: Inhibition of NFkappaB in mouse RAW 264.7 cells assessed as reduction in LPS-induced transcriptional activation at 50 uM preincubated for 1 hr followed by LPS administration measured after 25 mins by EMSA relative to control. It counts as cell-based. The note with it: time 85.0 min. (In general: Mobility shift assays separate free from complexed probe on a gel.)

The test system of assay [5] is RAW264.7. Briefly: Anti-inflammatory activity in mouse RAW264.7 cells assessed as inhibition of LPS-induced IL-6 mRNA expression at 50 to 100 uM preincubated for 1 hr followed by LPS administration measured after 3 hrs by RT-PCR analysis. It counts as functional, cell-based. The note with it: dose microM 50-100, time 4.0 hrs.
Assay [6] has as its system RAW264.7. Briefly: Anti-inflammatory activity in mouse RAW264.7 cells assessed as inhibition of LPS-induced COX2 protein level at 50 to 100 uM preincubated for 90 mins followed by LPS administration measured after 3 hrs by RT-qPCR analysis relative to control. The class given is functional. To be noted: dose microM 50-100; time 270 min; 4.5 h. For orientation: Quantitative PCR measures a nucleic acid by following its amplification.

Assay [7] concerns RAW264.7. Kind of assay: Anti-inflammatory activity in mouse RAW264.7 cells assessed as inhibition of LPS-induced COX2 mRNA expression at 50 to 100 uM preincubated for 90 mins followed by LPS administration measured after 3 hrs by RT-qPCR analysis. The class given is functional, cell-based. The note with it: dose microM 50-100, time 270.0 min.
In assay [8] the test system is RAW264.7. Kind of assay: Anti-inflammatory activity in mouse RAW264.7 cells assessed as inhibition of LPS-induced IL-6 production at 50 to 100 uM preincubated for 1 hr followed by LPS administration measured after 3 hrs by ELISA. The class given is functional, cell-based. The note with it: dose microM 50-100, time 4.0 hrs.
Assay [9] deals with RAW264.7. Briefly: Anti-inflammatory activity in mouse RAW264.7 cells assessed as inhibition of LPS-induced TNF-alpha production at 50 to 100 uM preincubated for 1 hr followed by LPS administration measured after 3 hrs by ELISA. The class given is functional, cell-based. To be noted: dose microM 50-100, time 4.0 hrs.
Assay [10] deals with RAW264.7. Briefly: Anti-inflammatory activity in mouse RAW264.7 cells assessed as inhibition of LPS-induced COX2 level at 50 to 100 uM preincubated for 90 mins followed by LPS administration measured after 3 hrs by fluorimetric analysis relative to control. To be noted: dose microM 50-100; time 270 min; 4.5 h. It counts as functional.
Assay [11] has as its system RAW264.7. Briefly: Anti-inflammatory activity in mouse RAW264.7 cells assessed as inhibition of LPS-induced TNF-alpha mRNA expression at 50 to 100 uM preincubated for 1 hr followed by LPS administration measured after 3 hrs by RT-PCR analysis. It counts as functional, cell-based. To be noted: dose microM 50-100, time 4.0 hrs.
The test system of assay [12] is RAW264.7. Kind of assay: Anti-inflammatory activity in mouse RAW264.7 cells assessed as inhibition of LPS-induced IL-1beta production at 50 to 100 uM preincubated for 1 hr followed by LPS administration measured after 3 hrs by ELISA. The class given is functional, cell-based. The note with it: dose microM 50-100, time 4.0 hrs.
Assay [13] relates to RAW264.7. Briefly: Anti-inflammatory activity in mouse RAW264.7 cells assessed as inhibition of LPS-induced IL-1beta mRNA expression at 50 to 100 uM preincubated for 1 hr followed by LPS administration measured after 3 hrs by RT-PCR analysis. To be noted: dose microM 50-100, time 4.0 hrs. The class given is functional, cell-based.
Assay [14] concerns RAW264.7. Briefly: Inhibition of NFkappaB in mouse RAW 264.7 cells assessed as reduction in LPS-induced transcriptional activation at 100 uM preincubated for 1 hr followed by LPS administration measured after 25 mins by EMSA relative to control. The class given is cell-based. To be noted: time 85.0 min.
Assay [15] deals with T1, Inhibitor of nuclear factor kappa-B kinase subunit beta (Mus musculus) (UniProt O88351).
T1 sequence (whole entry): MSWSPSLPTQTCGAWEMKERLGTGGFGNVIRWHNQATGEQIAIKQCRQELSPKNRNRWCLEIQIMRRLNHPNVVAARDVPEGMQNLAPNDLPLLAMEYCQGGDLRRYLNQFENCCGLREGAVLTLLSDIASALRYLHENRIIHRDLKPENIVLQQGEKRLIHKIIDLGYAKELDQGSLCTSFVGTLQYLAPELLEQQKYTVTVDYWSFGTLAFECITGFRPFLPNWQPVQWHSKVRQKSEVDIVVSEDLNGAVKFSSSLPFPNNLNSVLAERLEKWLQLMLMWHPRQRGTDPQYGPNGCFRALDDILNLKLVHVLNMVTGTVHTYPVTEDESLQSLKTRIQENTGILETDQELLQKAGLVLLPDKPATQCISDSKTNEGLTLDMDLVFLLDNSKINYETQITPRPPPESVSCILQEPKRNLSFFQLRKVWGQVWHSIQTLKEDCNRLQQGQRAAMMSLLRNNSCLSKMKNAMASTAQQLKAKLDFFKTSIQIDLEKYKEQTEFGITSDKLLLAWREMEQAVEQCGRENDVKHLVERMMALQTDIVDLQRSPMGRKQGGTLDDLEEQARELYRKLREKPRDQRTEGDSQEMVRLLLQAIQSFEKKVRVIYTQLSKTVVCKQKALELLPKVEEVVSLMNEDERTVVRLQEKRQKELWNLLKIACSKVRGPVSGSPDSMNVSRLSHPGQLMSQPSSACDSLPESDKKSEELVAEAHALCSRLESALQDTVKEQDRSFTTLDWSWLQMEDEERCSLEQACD
Briefly: Inhibition of IKK-beta phosphorylation at Ser176/177 residues in LPS-induced mouse RAW 264.7 cells at 50 to 100 uM preincubated for 1 hr followed by LPS administration measured after 25 mins by Western blot analysis. To be noted: RAW264.7, dose microM 50-100, time 85.0 min.

Assay [16] deals with RAW264.7. Kind of assay: Anti-inflammatory activity in mouse RAW264.7 cells assessed as inhibition of LPS-induced TNF-alpha production at 10 uM preincubated for 1 hr followed by LPS administration measured after 3 hrs by ELISA. It counts as functional, cell-based. The note with it: time 4.0 hrs.
Assay [17] has as its target Transcription factor p65 (Mus musculus) (UniProt Q04207). Briefly: Inhibition of p65 phosphorylation at Ser536 residues in LPS-induced mouse RAW 264.7 cells at 10 uM preincubated for 1 hr followed by LPS administration measured after 25 mins by Western blot analysis relative to control. The note with it: RAW264.7, dose 100.0 µM, time 85.0 min.
Target sequence in this assay (Q04207 whole entry, looked up): as the sequence (Q04207 whole entry) above
The test system of assay [18] is RAW264.7. Kind of assay: Anti-inflammatory activity in mouse RAW264.7 cells assessed as inhibition of LPS-induced TNF-alpha mRNA expression at 10 uM preincubated for 1 hr followed by LPS administration measured after 3 hrs by RT-PCR analysis. The note with it: time 4.0 hrs. The class given is functional, cell-based.
The test system of assay [19] is RAW264.7. Briefly: Anti-inflammatory activity in mouse RAW264.7 cells assessed as inhibition of LPS-induced IL-6 mRNA expression at 10 uM preincubated for 1 hr followed by LPS administration measured after 3 hrs by RT-PCR analysis. To be noted: time 4.0 hrs. It counts as functional, cell-based.
Assay [20] concerns RAW264.7. Briefly: Anti-inflammatory activity in mouse RAW264.7 cells assessed as inhibition of LPS-induced IL-1beta mRNA expression at 10 uM preincubated for 1 hr followed by LPS administration measured after 3 hrs by RT-PCR analysis. The class given is functional, cell-based. To be noted: time 4.0 hrs.
The target of assay [21] is T1, Inhibitor of nuclear factor kappa-B kinase subunit beta (Mus musculus). Kind of assay: Inhibition of IKK-beta phosphorylation at Ser176/177 residues in LPS-induced mouse RAW 264.7 cells at 10 uM preincubated for 1 hr followed by LPS administration measured after 25 mins by Western blot analysis relative to control. The note with it: RAW264.7, time 85.0 min.
Assay [22] has as its system RAW264.7. Briefly: Anti-inflammatory activity in mouse RAW264.7 cells assessed as inhibition of LPS-induced IL-1beta production at 10 uM preincubated for 1 hr followed by LPS administration measured after 3 hrs by ELISA. It counts as functional, cell-based. The note with it: time 4.0 hrs.
Assay [23] deals with RAW264.7. Briefly: Anti-inflammatory activity in mouse RAW264.7 cells assessed as inhibition of LPS-induced IL-6 production at 10 uM preincubated for 1 hr followed by LPS administration measured after 3 hrs by ELISA. The class given is functional, cell-based. The note with it: time 4.0 hrs.

The structures appear in SMILES notation. Active and inactive are the calls of the source. No cut-off for these calls is given here.

With `CC(=O)Oc1c2c(c(C)c3c(C)coc13)[C@@H](C)CCC2`, the fold change (FC) in [1] was determined as 0.2; in the assay with RAW264.7 [4] it was 1.7; with RAW264.7 [6], 2; in the assay with RAW264.7 [10], 2.5; in the assay with RAW264.7 [14], 2.1. In addition, the Activity with Mus musculus [2] came out at 6.56 mg. Besides, in the assay on Mus musculus [3], the “inhibition (INH)” value is 70.3%. The inhibition entry with RAW264.7 [5], in the assay on RAW264.7 [7], in the assay on RAW264.7 [8], in the assay with RAW264.7 [9], in the assay with RAW264.7 [11] and with RAW264.7 [12] was “Active” each time. In the assay on RAW264.7 [13], the inhibition result was “Active”. Besides, the inhibition entry in assay [15] is “inactive”.
In the case of `Cc1coc2c(O)c3c(c(C)c12)[C@@H](C)CCC3` [CACALOL], the Activity with Mus musculus [2] stood at 8.55 mg. Moreover, in the assay on Mus musculus [3], the “inhibition (INH)” value amounted to 48.5%.
In the case of `COc1ccc2c(c1)c(CC(=O)O)c(C)n2C(=O)c1ccc(Cl)cc1` [INDOMETHACIN], the Activity in the assay with Mus musculus [2] came out at 4.05 mg. Further, in the assay with Mus musculus [3], the “inhibition (INH)” value was 78.6%.
Regarding `CC(C)(C)c1ccc(S(=O)(=O)/C=C/C#N)cc1`, the inhibition result with RAW264.7 [16], in the assay with RAW264.7 [18], in the assay on RAW264.7 [19], in the assay with RAW264.7 [20], in the assay on RAW264.7 [22] and in the assay with RAW264.7 [23] was “Active” throughout. Also, the fold change (FC) in [17] was found to be 0.1; in assay [21], 1.5.
